Assay results reported in PMC10451668, “Natural Acetogenins, Chatenaytrienins-1, -2, -3 and -4, Mitochondrial Potential Uncouplers and Autophagy Inducers—Promising Anticancer Agents” (Antioxidants, 2023).

Experiments:
Assay type in all cases: cell-based, human
Jurkat cells [1] = test: Oxidative stress and early apoptosis (MitoSOX Red and annexin V, MitoStress Kit); conditions: antimycin 100 µM, 4 h
Description: Changes in the mitochondrial membrane potential (ΔΨ) in Jurkat cells induced by treatment with the synthesized compounds were detected using MitoSOX Red, a positively charged probe that accumulates rapidly in mitochondria and as such can be used to detect superoxide/ROS production within mitochondria using fluorometry, microscopy, or flow cytometry. Live cells induced a low level of MitoSOX Red fluorescence, while cells with scattered mitochondrial membrane potential caused much higher MitoSOX Red fluorescence. Annexin V is a dye commonly used to detect early signs of apoptosis. […] Thus, using two different dyes, MitoSOX Red and annexin V (CF488A), in the FlowCellect™ MitoStress Kit (FCCH100109), we analyzed the mitochondrial membrane potential dissipation and associated apoptosis in Jurkat cells in response to the synthesized chatenaytrienins.
Therefore, simultaneous detection of mitochondrial superoxide generation (detected by MitoSOX Red membrane-penetrating dye) and expression of phosphatidylserine on the cell surface of apoptotic cells (assessed by binding of annexin V) in the same cell sample provides an accurate evaluation of the ability of the test compound to initiate oxidative stress in cell culture and induce apoptosis.

Jurkat tumor cell line = test: Assessment of cytochrome c loss (FlowCellect Cytochrome c Kit); conditions: compound at CC50, incubation 3 h, anti-cytochrome c-FITC
Method: Quantification of cytochrome c release from mitochondria in apoptotic cells was presented to detect the mitochondrial pathway of apoptosis in cells using flow cytometry with the FlowCellect™ Cytochrome c Kit (FCCH100110). For this, cells were treated with FITC-conjugated antibodies against cytochrome c and control anti-IgG1-FITC, together with the use of an optimized fixation procedure, permeabilization, and blocking buffer (Luminex®, USA). […] Jurkat cells were incubated for 4 h with the synthesized substances at a concentration corresponding to their 24-h CC50 in a culture plate and assessed using the NovoCyte Penteon Flow Cytometer System (Agilent, 5301 Stevens Creek Blvd., Santa Clara, CA, USA). The obtained data were processed using NovoExpress® software (ACEA).

Jurkat cells [2] = test: Detection of mitodamage: mitochondrial membrane potential and apoptosis (MitoSense Red, annexin V, 7-AAD); conditions: Jurkat, compound at CC50, 4 h
Description: The use of reagents MitoSense Red, annexin V, and 7-AAD in the Millipore FlowCellect™ MitoDamage Kit allowed us to gain information on early, mid, and late apoptosis with one simple assay. […] After this time, the cells were dissociated using an accutase solution, stained, and analyzed using the NovoCyte Penteon Flow Cytometer System (Agilent, 5301 Stevens Creek Blvd., Santa Clara, CA, USA), according to the manufacturer’s protocols for the FlowCellect™ MitoDamage Kit and FlowCellect™ Oxidative Stress Characterization Kit (Merck).
Detection of mitochondrial potential dissipation using MitoSense Red, annexin V, and 7-AAD provided a simultaneous measurement of three important parameters of the cell state within the same cell sample: the state of the mitochondrial potential (Δψ), detected by the membrane-penetrating MitoSense Red dye; the expression of phosphatidylserine on the cell surface of apoptotic cells, assessed by the binding of annexin V to externalized phosphatidylserine; and the binding of 7-AAD to DNA in cells in the late stages of apoptosis. Multiparametric evaluation of these indicators of cell viability made it possible to determine the correlation and relationship between oxidation dissipation and phosphorylation with apoptosis.

Jurkat cell lysates = test: Multiplex analysis of signaling, genotoxicity and early apoptosis proteins (MILLIPLEX MAP, Luminex)
Method: Multiplex analysis was performed according to a previously published method. MILLIPLEX®MAP technology is used to determine the total protein or phosphorylated protein levels of various biological analytes, such as kinases or signaling proteins, including CREB, ERK/MAP, p70 S6, p21, p38, PI3K/AKT/mTOR, JNK (A), p53, MDM2, Bcl-2/Bax, STAT3 and STAT5, Nf-kB, Caspase 3-8-9, JNK, ATM, Chk1, Chk2, and H2AX, in cell lysates using the Luminex® system ((MILLIPLEX Multi-Pathway Magnetic Bead 9-Plex—Cell Signaling Multiplex Assay kit, Merk, Germany). This MILLIPLEX®MAP technology provides an alternative to Western blotting and immunoprecipitation and has several important advantages, such as more accurate measurement of small amounts of protein and the elimination of analyte loss during sample preparation. The multiplex immunoassay (MILLIPLEX 48-680MAG; Merck Millipore, Germany) was performed in Millipore 96-well plates to detect changes in concentrations of phosphorylated and unphosphorylated proteins p53, MDM2, p21, p38, PI3K/AKT/mTOR, Bcl-2/Bax, STAT3 and STAT5, Nf-kB, Caspase 3 -8-9, CREB, ERK/MAP, p70 S6, JNK, ATM, Chk1, Chk2, and H2AX in Jurkat cell lysates.
The levels of phosphorylated and non-phosphorylated proteins were analyzed using MILLIPLEX® map technology to study the analytes in the same sample within a fairly short time. Various deviations in protein concentration due to external factors or detection errors that could affect the results of the experiment were thereby reduced to zero.
The expression of p53, MDM2, p21, p38, PI3K/AKT/mTOR, Bcl-2/Bax, STAT3 and STAT5, Nf-kB, Caspase 3-8-9, CREB, ERK/MAP, p70 S6, JNK, ATM, Chk1, Chk2, and H2AX proteins in lysate samples of Jurkat tumor cells were studied using Luminex technology with the MILLIPLEX® MAP 9-Plex Multi-Pathway 9-plex Magnetic Bead Kit. This bead-based assay involved color-coded fluorescent particles pre-coated with specific antibodies targeting 9 major kinases in signaling pathways.

SMILES: CCCCCC[C@H]1C(=O)O[C@H](C)[C@H](NC(=O)c2cccc(NC=O)c2O)C(=O)O[C@@H](C)[C@@H]1OC(=O)CC(C)C [antimycin, reference compound]
- intact (live) cells in the sample (Jurkat cells [1]): 12.65%

SMILES: CN[C@@H]1C[C@H]2O[C@@](C)([C@@H]1OC)n1c3ccccc3c3c4c(c5c6ccccc6n2c5c31)C(=O)NC4 [staurosporine, reference compound]
- cells with cytochrome c released into the cytoplasm (Negative gate) (Jurkat tumor cell line): 80.23%
- cells in late apoptosis (stained with 7-AAD) (Jurkat cells [2]): 2.48%

SMILES: CCCCCCCCCCCC/C=C\CC/C=C\CCCCCCCCCCCCC1=C[C@H](C)OC1=O [muricadienin, reference compound]
- expression of caspase-8 (Jurkat cell lysates; 6 h and 12 h): did not significantly affect
- concentration of p53 (Jurkat cell lysates; after 12 h of incubation, versus control): significantly increased
- levels of all types of kinase proteins (CREB, JNK, NFkB, p38, ERK1/2, Akt, p70S6K, STAT3, STAT5) (Jurkat cell lysates; compound at CC50, 4 h, MFI versus intact cells): most pronouncedly reduced
- cleaved caspase-9 (Jurkat cell lysates; especially after 12 h, level exceeded control): promoted the accumulation
- level of BAD protein (Jurkat cell lysates; first 6 h, within 12 h began to increase again, not reaching control): decreased
